# Source: patent publication EP2951180B1, “2,6,7,8 SUBSTITUTED PURINES AS HDM2 INHIBITORS” (Merck Sharp & Dohme Corp., priority 2013, dated 2014)
# Read-outs that look alike come from different tables or passages of the source.
# Molecular target: T1, HDM2 (Homo sapiens, UniProt Q00987)
# T1 construct: Thioredoxin (N); made in house; host or cells: E. coli strain BL21(DE3)Rosetta
# Test: HDM2 FRET assay (inhibition of binding of FITC labeled p53-pocket peptide to HDM2)
# Details: for IC50: read-out: FRET IC50
# Excerpt: Methods: An HDM2 FRET assay was developed to assess the compounds' inhibitory activity towards binding of p53 protein. […] Protein was purified using Ni-affinity chromatography, followed by size exclusion chromatography using Superdex 75 26/60 column. […] The HDM2 assay buffer contained 1x Phosphate Buffered Saline (Invitrogen, Cat#14190), 0.01% BSA (Jackson ImmunoResearch, Cat# 001-000-162), 0.01% Tween-20. In the 1X assay buffer recombinant HDM2 protein, peptide and Lumi4-Tb Cryptate-conjugate mouse anti-6xHis antibody (cisbio, Cat#Tb61HISTLB) were added and transferred to ProxiPlate PLUS (PerkinElmer, Cat#6008269), containing compounds so that final DMSO concentration is 0.1% . Final concentrations of reagents in the assay wells are 0.5 nM HDM2, 0.25nM anti HIS (Tb label) antibody and 3nM peptide. […] Ratio of em520/em495 was used to calculate %inhibition and to obtain IC50 with 4-parameter logistic equation.
# IC50 DETERMINATIONS: Dose-response curves were plotted from the inhibition data, from 10 point serial dilutions of inhibitory compounds. Concentration of compound was plotted against em520/Cem495 ratio signal. To generate IC50 values, the dose-response curves were fitted to a standard sigmoidal curve and IC50 values were derived by nonlinear regression analysis.
# [1] = 0.5 nM HDM2 (residues 17 to 125), 3nM peptide, two hour incubation at room temperature
# T1 sequence (Q00987 17-125): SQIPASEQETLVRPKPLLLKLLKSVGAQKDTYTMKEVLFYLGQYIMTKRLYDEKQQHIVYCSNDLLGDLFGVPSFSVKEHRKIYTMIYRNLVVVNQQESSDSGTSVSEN
compound,measurement,setting,value
"C[C@@H](Nc1nc(-c2noc(=O)[nH]2)nc2nc(N3CCC(C)(O)C3)n(C[C@H]3CC[C@H](C)CC3)c12)C1CCC1 (stereo partly drawn) [Example 11.113, 3-(6-{[(1R)-1-cyclobutylethyl]amino}-8-(3-hydroxy-3-methylpyrrolidin-1-yl)-7-[(trans-4-methylcyclohexyl)methyl]-7H-purin-2-yl)-1,2,4-oxadiazol-5(2H)-one]",IC50,Table 11,57.7 nM
"C[C@@H](Nc1nc(-c2noc(=O)[nH]2)nc2nc(N3CCCC3C3CCCCC3)n(Cc3ccc(C(F)(F)F)cc3)c12)C1CCC1 (stereo partly drawn) [Example 9.103, 3-(6-{[(1R)-1-cyclobutylethyl]amino}-8-(2-cyclohexylpyrrolidin-1-yl)-7-[4-(trifluoromethyl)benzyl]-7H-purin-2-yl)-1,2,4-oxadiazol-5(4H)-one]",IC50,Table 9,31.9 nM
"C[C@@H](Nc1nc(C(=O)O)nc2nc(N3CCCCC3c3cccnc3)n(Cc3ccc(C(F)(F)F)cc3)c12)C1CCC1 (stereo partly drawn) [Example 9.114, 6-{[(1R)-1-cyclobutylethyl]amino}-8-(2-pyridin-3-ylpiperidin-1-yl)-7-[4-(trifluoromethyl)benzyl]-7H-purine-2-carboxylic acid]",IC50,Table 9,110 nM
"Cc1cccc(-c2nc(-c3noc(=O)[nH]3)nc3nc(N4CCOC[C@H]4C)n(C[C@H]4CC[C@H](C)CC4)c23)c1 [Example 16.28, 3-{7-[(trans-4-methylcyclohexyl)methyl]-8-[(3R)-3-methylmorpholin-4-yl]-6-(3-methylphenyl)-7H-purin-2-yl}-1,2,4-oxadiazol-5(4H)-one]",IC50,[1],38.7 nM
"C[C@H]1CC[C@H](Cn2c(N3CCOC[C@H]3c3ccccc3)nc3nc(-c4noc(=O)[nH]4)nc(-c4cc(F)cc(Cl)c4)c32)CC1 [Example 16.20, 3-{6-(3-chloro-5-fluorophenyl)-7-[(trans-4-methylcyclohexyl)methyl]-8-[(3R)-3-phenylmorpholin-4-yl]-7H-purin-2-yl}-1,2,4-oxadiazol-5(4H)-one]",IC50,[1],1.21 nM
"C[C@@H](Nc1nc(C(=O)O)nc2nc(N3CCC3c3ccccc3)n(Cc3ccc(C(F)(F)F)cc3)c12)C1CCC1 (stereo partly drawn) [Example 9.54, 6-{[(1R)-1-cyclobutylethyl]amino}-8-(2-phenylazetidin-1-yl)-7-[4-(trifluoromethyl)benzyl]-7H-purine-2-carboxylic acid]",IC50,Table 9,23.9 nM
"C[C@@H](Nc1nc(CO)nc2nc(N3CCOC[C@H]3c3ccccc3)n(Cc3ccc(C(F)(F)F)cc3)c12)C1CCC1 [Example 12.33, (6-{[(1R)-1-cyclobutylethyl]amino}-8-[(3R)-3-phenylmorpholin-4-yl]-7-[4-(trifluoromethyl)benzyl]-7H-purin-2-yl)methanol]",IC50,[1],151 nM
"C[C@@H](Nc1nc(N2CCC[C@@H]2C(=O)O)nc2nc(N3CCOC[C@H]3c3ccccc3)n(C[C@H]3CC[C@H](C)CC3)c12)C1CCC1 [Example 13.4, 1-(6-{[(1R)-1-cyclobutylethyl]amino}-7-[(trans-4-methylcyclohexyl)methyl]-8-[(3R)-3-phenylmorpholin-4-yl]-7H-purin-2-yl)-D-proline]",IC50,[1],96.1 nM
"Cc1cccc(-c2nc3nc(C(=O)O)nc(NC4CCC(CNC(=O)OC(C)(C)C)CC4)c3n2Cc2ccc(C(F)(F)F)cc2)c1 (stereo not drawn) [Example 6.35, 6-[(4-{[(tert-butoxycarbonyl)amino]methyl}cyclohexyl)amino]-8-(3-methylphenyl)-7-[4-(trifluoromethyl)benzyl]-7H-purine-2-carboxylic acid]",IC50,Table 6,2340 nM
"CC(C)c1ccnc(-c2nc3nc(C(=O)O)nc(N[C@H](C)C4CCC4)c3n2CC2CCC(F)(F)CC2)c1 [Example 18.3, (R)-6-((1-cyclobutylethyl)amino)-7-((4,4-difluorocyclohexyl)methyl)-8-(4-isopropylpyridin-2-yl)-7H-purine-2-carboxylic acid]",IC50,Table 18,57.4 nM
"CC[C@H](C)Nc1nc(C(=O)O)nc2nc(-c3cccc(C)c3)n(Cc3ccc(C(F)(F)F)cc3)c12 [Example 6.61, 8-(3-methylphenyl)-6-{[(1S)-1-methylpropyl]amino}-7-[4-(trifluoromethyl)benzyl]-7H-purine-2-carboxylic acid]",inhibition at 1 µM,read-out: inh. at 1000 nM (FRET),41%
"CCCCN(CCC)c1nc(C(=O)O)nc2nc(-c3cccc(C)c3)n(Cc3ccc(C(F)(F)F)cc3)c12 [Example 6.68, 6-[butyl(propyl)amino]-8-(3-methylphenyl)-7-[4-(trifluoromethyl)benzyl]-7H-purine-2-carboxylic acid]",IC50,Table 6,681 nM
"COC(=O)[C@@H]1COCCN1c1nc2nc(-c3noc(=O)[nH]3)nc(-c3cccc(Cl)c3)c2n1C[C@H]1CC[C@H](C)CC1 [Example 16.48, methyl (3S)-4-[6-(3-chlorophenyl)-7-[(trans-4-methylcyclohexyl)methyl]-2-(5-oxo-4,5-dihydro-1,2,4-oxadiazol-3-yl)-7H-purin-8-yl]morpholine-3-carboxylate]",IC50,[1],88.3 nM
"C[C@@H](Nc1nc(C(=O)O)nc2nc(-c3ccc4sccc4c3)n(Cc3ccc(C(F)(F)F)cc3)c12)C1CCC1 [Example 6.14, 8-(1-benzothiophen-5-yl)-6-{[(1R)-1-cyclobutylethyl]amino}-7-[4-(trifluoromethyl)benzyl]-7H-purine-2-carboxylic acid]",IC50,Table 6,35.3 nM
"C[C@@H](Nc1nc(C(=O)O)nc2nc(Nc3ccccc3)n(Cc3ccc(C(F)(F)F)cc3)c12)C1CCC1 [Example 9.21, 6-{[(1R)-1-cyclobutylethyl]amino} -8-(phenylamino)-7-[4-(trifluoromethyl)benzyl]-7H-purine-2-carboxylic acid]",IC50,Table 9,9.44 nM
"COCC(c1ccccc1)c1nc2nc(-c3noc(=O)[nH]3)nc(N[C@H](C)C3CCC3)c2n1C[C@H]1CC[C@H](C)CC1 (single isomer, unassigned) [Example 21.42, 3-(6-{[(1R)-1-cyclobutylethyl]amino}-8-[(1S or R)-2-methoxy-1-phenylethyl]-7-[(trans-4-methylcyclohexyl)methyl]-7H-purin-2-yl)-1,2,4-oxadiazol-5(4H)-one]",IC50,Table 21,3.41 nM
"COC1(C)CN(c2nc3nc(-c4noc(=O)[nH]4)nc(N[C@H](C)C4CCC4)c3n2C[C@H]2CC[C@H](C)CC2)C1 [Example 11.102, 3-(6-{[(1R)-1-cyclobutylethyl]amino}-8-(3-methoxy-3-methylazetidin-1-yl)-7-[(trans-4-methylcyclohexyl)methyl]-7H-purin-2-yl)-1,2,4-oxadiazol-5(2H)-one]",IC50,Table 11,20.8 nM
"C[C@@H](Nc1nc(-c2noc(=O)[nH]2)nc2nc(C(C)(F)c3ccccc3F)n(C[C@H]3CC[C@H](C)CC3)c12)C1CCC1 (single isomer, unassigned) [Example 22.62]",IC50,Table 22,0.563 nM
"Cc1cccc(-c2nc3nc(C(=O)O)nc(N[C@H](C4CC4)C(F)(F)F)c3n2Cc2ccc(C(F)(F)F)cc2)c1 [Example 6.52, 6-{[(1R)-1-cyclopropyl-2,2,2-trifluoroethyl]amino}-8-(3-methylphenyl)-7-[4-(trifluoromethyl)benzyl]-7H-purine-2-carboxylic acid]",IC50,Table 6,319 nM
"Cc1nn(C)cc1CNc1nc2nc(-c3noc(=O)[nH]3)nc(N[C@H](C)C3CCC3)c2n1C[C@H]1CC[C@H](C)CC1 [Example 11.109, 3-(6-{[(1R)-1-cyclobutylethyl]amin ο}-8-{[(1,3-dimethyl-1H-pyrazol-4-yl)methyl]amino} -7-[(trans-4-methylcyclohexyl)methyl]-7H-purin-2-yl)-1,2,4-oxadiazol-5(2H)-one]",IC50,Table 11,55.6 nM
"Cc1cccc(-c2nc3nc(C(=O)O)nc(NC4CCCCC4C)c3n2Cc2ccc(Br)cc2)c1 (stereo not drawn) [Example 6.9, 7-(4-bromobenzyl)-6-[(2-methylcyclohexyl)amino]-8-(3-methylphenyl)-7H-purine-2-carboxylic acid]",IC50,Table 6,22.3 nM
"CC(C)CC1COCCN1c1nc2nc(-c3noc(=O)[nH]3)nc(N[C@H](C)C3CCC3)c2n1C[C@H]1CC[C@H](C)CC1 (stereo partly drawn) [Example 11.41, 3-(6-{[(1R)-1-cyclobutylethyl]amino}-7-[(trans-4-methylcyclohexyl)methyl]-8-[3-(2-methylpropyl)morpholin-4-yl]-7H-purin-2-yl)-1,2,4-oxadiazol-5(2H)-one]",IC50,Table 11,14.7 nM
"C[C@@H](Nc1nc(C(N)=O)nc2nc(N3CCN(S(C)(=O)=O)C[C@H]3c3ccccc3)n(C[C@H]3CC[C@H](C)CC3)c12)C1CCC1 [Example 17.12, 6-{[(1R)-1-cyclobutylethyl]amino}-7-[(trans-4-methylcyclohexyl)methyl]-8-[(2R)-4-(methylsulfonyl)-2-phenylpiperazin-1-yl]-7H-purine-2-carboxamide]",IC50,Table 17.2,4.6 nM
"CC(C)CN(C)c1nc2nc(-c3noc(=O)[nH]3)nc(N[C@H](C)C3CCC3)c2n1Cc1ccc(C(F)(F)F)cc1 [Example 9.81, 3-(6-{[(1R)-1-cyclobutylethyl]amino}-8-[methyl(2-methylpropyl)amino]-7-[4-(trifluoromethyl)benzyl]-7H-purin-2-yl)-1,2,4-oxadiazol-5(4H)-one]",IC50,Table 9,11.6 nM
